How the values were obtained:
PH domain of GRP [1] = molecular target: T1, PH domain of GRP (Mus musculus, UniProt O08967); experiment: Competition for [3H]dioctanoyl PtdIns(3,4,5)P3 binding to the PH domain of GRP; design: GST fused to the PH region of GRP (amino acids 239-399); made in house; host or cells: bacteria; settings: dioctanoyl
T1 sequence (O08967 239-399): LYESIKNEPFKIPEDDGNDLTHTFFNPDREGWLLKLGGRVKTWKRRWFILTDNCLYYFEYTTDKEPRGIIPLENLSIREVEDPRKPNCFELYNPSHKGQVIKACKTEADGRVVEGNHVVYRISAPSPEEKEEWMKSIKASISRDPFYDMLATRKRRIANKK
Experimental: Binding assays were performed as described in (Rameh, L. E. et al., J. Biol. Chem., In Press). Briefly, GST fused to the PH region of GRP (amino acids 239-399) was bound to glutathione immobilized on agarose beads (Sigma). Synthetic [^3 H]-labeled diotanoyl PtdIns(3,4,5)P3 was added, and after one hour the beads were separated from the supernatant by centrifugation. The amount of [^3 H]-PtdIns(3,4,5)P3 bound to the PH domain was calculated by subtracting the amount of free [^3 H] present in supernatants from GST-GRP from the amount of free [^3 H] in supernatants from control GST. The data was fitted to the equation [bound]=Bmax×[free]/(KD + [free]) by least squares curve fit. For the competition assays the beads containing the GST-fusion proteins were incubated with 2.5 μM[^3 H]-labeled dioctanoyl PtdIns(3,4,5)P3 bound was calculated based on the amount of [^3 H] bound to the beads in the absence of competitor. The total [^3 H] bound to the GST control was less then 0.5% of the total [^3 H] bound to GRP PH domain. The data was fitted to the equation % bound=100-n×L/Klapp +L) where n is the % specific binding, L is the concentration of unlabeled lipid added and Klapp is the apparent competitive dissociation constant. The rations of the apparent dissociation constants accurately reflect the ratios of the true dissociation constants under the present experimental conditions (Rameh, L. E. et al., J. Biol. Chem., In Press).
The data depicted in FIG. 8 indicate that receptor signaling through PI3-kinases, which generates PtdIns(3,4,5)P3, may specifically regulate ARF proteins through GRP. In order to further test this, the relative binding affinities of PtdIns(3,4,5)P3 versus PtdIns (4,5)P2, which is constitutively present in cell membranes, for the PH domain of GRP were determined. A GST fusion protein of the PH domain of GRP was incubated with various concentrations of synthetic [^3 H]dioctanoyl PtdIns(3,4,5)P3 and binding was determined (FIG. 9A). These experiments show high affinity binding of this polyphosphoinositide,with a calculated Kd=0.5 μM.

[2] = system: receptor-regulated cell adhesion; settings: cited from earlier work
PH domain of GRP [3] = molecular target: T1, PH domain of GRP; experiment: Binding specificity of the GRP PH domain for 32P-labeled phosphoinositides (GST-PH on nitrocellulose); design: species or system murine; settings: GST-PH, 25,000 cpm lipid; relative to GST
Experimental: The 3'-phosphatidylinositol probes labeled at the 3' position were generated using GST-p110 PI3-kinase purified from recombinant bacculovirus infected Sf 9 cells, using either purified phosphatidylinositol phosphates or crude brain lipid. Briefly, 20 mg phospholipid in chloroform was dried under N2 and resuspended in […] of buffer containing Tris-HCl pH 7.4, EDTA 1 mM and incubated in […] phopsphorylation media containing 20 mM Tris-HCl pH 7.4, 100 mM NaCl, 10 mM MgCl2, 0.5 mM EGTA. 0.2 mM adenosine, GST-p110 and 5-10 mCi [g-^32 P]ATP (5 Ci/umol). The reaction was carried out for 2 h at room temperature, quenched by addition of 0.2 ml of 1M HCl, followed by 0.5 ml of chloroform:methanol (1:1). The organic phase containing phospholipids was washed 4 times with 0.4 ml of methanol:HCl (1: 1) and stored at -70° C. until use. Just before use, the lipid was dried under a stream of nitrogen with phosphatidyl serine corresponding to a final concentration of 20 mg/ml. The identities of the PI3-P, PI3,4-P2 and PI3,4,5-P3 were confirmed by TLC and HPLC analysis.
To generate the GST fusion proteins, PCR reactions using the primers: […] (SEQ ID NO:9) and […] (SEQ ID NO:10) for the GST-N construct, […] (SEQ ID NO:11) and […] (SEQ ID NO:12) for the GST-Sec7 construct, […] (SEQ ID NO:13) and […] (SEQ ID NO:14) for the GSTPH construct, and […] […] The filters were washed four times with 1 mL assay buffer and counted in a scintillation counter.
In order to determine whether PI(3,4,5)P3 binding could be localized to specific sequences within the GRP structure, GST fusion proteins containing either residues 239 to 399 (PH domain), residues 52 to 260 (Sec7 domain), or residues 5 to 71, full length GRP residues 5-399 were expressed in bacteria and purified on glutathione-conjugated beads. […] 150 pmol of the proteins were spotted on nitrocellulose filters, incubated with [^32 P]PI(3,4,5)P3 and the amount of bound lipid was determined as described. […] Nitrocellulose filters with GST-PH were incubated with 25,000 cpm of each of the phospholipids and the amount of bound lipid determined as described above. […]

[4] = molecular target: T2, proteins encoded by both brain and adipocyte cDNA clones (GRP) (Mus musculus, UniProt O08967); experiment: Binding of 32P-labeled phosphoinositides to protein of isolated cDNA clones on nitrocellulose filters (library screen); settings: library screening conditions
T2 construct: lack four residues
T2 sequence (O08967 5-399): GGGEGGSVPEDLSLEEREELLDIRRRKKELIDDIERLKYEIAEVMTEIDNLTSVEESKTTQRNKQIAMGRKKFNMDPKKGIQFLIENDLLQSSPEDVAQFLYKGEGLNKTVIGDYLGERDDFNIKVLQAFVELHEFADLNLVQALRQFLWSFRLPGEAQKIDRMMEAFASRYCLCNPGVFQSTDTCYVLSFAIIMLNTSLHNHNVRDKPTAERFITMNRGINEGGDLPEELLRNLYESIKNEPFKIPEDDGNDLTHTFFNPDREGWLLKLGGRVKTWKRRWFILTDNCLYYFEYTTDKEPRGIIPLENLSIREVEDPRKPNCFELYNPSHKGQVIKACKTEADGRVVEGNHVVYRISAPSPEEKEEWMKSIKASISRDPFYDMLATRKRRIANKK

GRP = molecular target: T3, GRP (Mus musculus, UniProt O08967); experiment: Effect of phosphoinositides on GRP-catalyzed ARF1 guanine nucleotide exchange; format: biochemical; settings: 25 μM lipid, 0.15 μM GRP
T3 construct: GST (N, cleaved yes); made in house; host or cells: GRP from pGEX-4T; ARF1 from baculovirus-infected Sf-9 cells
T3 sequence (O08967 1-399): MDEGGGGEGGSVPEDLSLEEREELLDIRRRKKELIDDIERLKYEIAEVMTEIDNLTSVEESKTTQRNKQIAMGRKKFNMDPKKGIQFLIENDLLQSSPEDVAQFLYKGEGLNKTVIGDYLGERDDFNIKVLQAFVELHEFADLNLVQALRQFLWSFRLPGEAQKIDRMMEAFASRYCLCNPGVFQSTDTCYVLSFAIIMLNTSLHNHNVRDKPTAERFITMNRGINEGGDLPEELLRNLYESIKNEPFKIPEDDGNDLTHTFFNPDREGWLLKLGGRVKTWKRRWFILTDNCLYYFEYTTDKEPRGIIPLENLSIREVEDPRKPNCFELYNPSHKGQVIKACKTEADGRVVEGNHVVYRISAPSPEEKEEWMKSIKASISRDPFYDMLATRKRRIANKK

Compound	binding of labeled phosphoinositide to the GRP PH domain (PH domain of GRP [3])	binding of labeled phosphoinositide to the cDNA clone protein [4]	further results
CCCCCCCC(=O)OC[C@H](COP(=O)(O)O[C@@H]1[C@H](O)[C@H](O)[C@@H](OP(=O)(O)O)[C@H](OP(=O)(O)O)[C@H]1O)OC(=O)CCCCCCC [dioctanoyl PtdIns(4,5)P2]			apparent affinity lower than that for dioctanoyl PtdIns(3,4,5)P3 (PH domain of GRP [1]): about two orders of magnitude lower
COC[C@H]1OC(=O)c2coc3c2[C@@]1(C)C1=C(C3=O)[C@@H]2CCC(=O)[C@@]2(C)C[C@H]1OC(C)=O [wortmannin]			receptor-regulated cell adhesion [2]: inhibits receptor-regulated cell adhesion
PI(3)P	failed to bind	not	
PtdIns(3,4)P2	failed to bind	not	stimulation of ARF1 exchange activity in the presence of GRP (GRP; 0.05% cholate and 0.05% CHAPS (low negative charge)): little or no effect; stimulation of ARF1 exchange activity in the presence of GRP (GRP; 0.1% cholate (high negative charge)): stimulated
